The values that follow come from patent US11603349B2, “Anti-fibrotic compounds” (Certa Therapeutics Pty Ltd, priority 2017, dated 2023).

Series [1] in a line: MTS tetrazolium reduction cell viability assay. The settings on record: rat, rat mesangial cells (1097/IRMC cells), TGF-β1 stimulated, CC50 (μM), vs 1% DMSO vehicle.
Series [2] deals with TGF-β induced [14C]-proline incorporation in rat mesangial cells. Nature of the series: [14C]-proline incorporation assay (collagen biosynthesis). In kind it is cell-based. Conditions: Rattus norvegicus, Mesangial cell, 44 h.
[3] abbreviates: inhibition of TGF-β1 (1 ng/ml) induced [14C]-proline incorporation, IRMC cells.

For the molecule `C#CCOc1ccc(C2CC2C(=O)Nc2ccc(C#N)cc2)cc1OC` (centres unmarked) [Example 135, N-(4-cyanophenyl)-2-(3-methoxy-4-(prop-2-yn-1-yloxy)phenyl)cyclopropanecarboxamide], the CC50 (as a rule, the concentration at which the toxic effect on the cells reaches its halfway point) at 48 h in series [1] was greater than 300 µM. For the same molecule, half-maximal inhibition in series [2] (setting [3]) (IC50) required 45.3 µM.
With `C#CCOc1ccc(/C=C/C(=O)Nc2ccccc2-n2cnc(C)n2)cc1OC` [Example 23, (E)-3-(3-methoxy-4-(prop-2-yn-1-yloxy)phenyl)-N-(2-(3-methyl-1H-1,2,4-triazol-1-yl)phenyl)acryl-amide], the midpoint of cytotoxicity in series [1], the CC50 at 48 h, lay at 104 µM. In series [2] (setting [3]), half-maximal inhibition (IC50) was put at 26.3 µM.
The like results for `COCCOc1cc(/C=C/C(=O)Nc2ccccc2C(=O)O)ccc1OC` [Example 61, (E)-2-(3-(4-methoxy-3-(2-methoxyethoxy)phenyl)acrylamido)benzoic acid] were, in that order, 276 µM and 48.9 µM.
Taken in the same sequence, the figures for `C#CCOc1ccc(/C=C/C(=O)Nc2ccccc2C#N)cc1OC` [Example 6, (E)-N-(2-cyanophenyl)-3-(3-methoxy-4-(prop-2-yn-1-yloxy)phenyl)acrylamide] were greater than 300 µM and 11.4 µM.
As for `C#CCOc1ccc(/C=C/C(=O)Nc2ccccc2-c2nc(C)no2)cc1OC` [Example 28, (E)-3-(3-methoxy-4-(prop-2-yn-1-yloxy)phenyl)-N-(2-(3-methyl-1,2,4-oxadiazol-5-yl)phenyl)acryl-amide], it took 146 µM to reach half-maximal cytotoxicity in series [1] (CC50 at 48 h). For the same molecule, the IC50 (usually the concentration at which inhibition is half-maximal) in series [2] (setting [3]) was 11.6 µM.
Turning to `C#CCOc1ccc(/C=C/C(=O)Nc2ccccc2C(=O)NCCN2CCN(C)CC2)cc1OC` [Example 34, (E)-2-(3-(3-methoxy-4-(prop-2-yn-1-yloxy)phenyl)acrylamido)-N-(2-(4-methylpiperazin-1-yl)ethyl)benzamide], the half-maximal cytotoxic concentration (CC50) at 48 h in series [1] came to 37.3 µM. Also, in series [2] (setting [3]), the IC50 came to 28.4 µM.
Take `C#CCOc1ccc(/C=C/C(=O)Nc2ccccc2F)cc1OC` [Example 1, (E)-N-(2-fluorophenyl)-3-(3-methoxy-4-(prop-2-yn-1-yloxy)phenyl)acrylamide]: in series [1], the 50% cytotoxic concentration (CC50) at 48 h was greater than 300 µM. Further, the half-inhibitory concentration (IC50) in series [2] (setting [3]) is 10.9 µM.
For `COc1ccc(/C=C/C(=O)Nc2ccccc2F)c(OCCN(C)C)c1OC` [Example 127, (E)-3-(2-(2-(dimethylamino)ethoxy)-3,4-dimethoxyphenyl)-N-(2-fluorophenyl)acrylamide], in series [1], the 50% cytotoxic concentration (CC50) at 48 h stood at 82.9 µM. In series [2] (setting [3]), this molecule showed an IC50 of 35.4 µM.
Taken in the same sequence, the figures for `C#CCOc1ccc(/C=C/C(=O)Nc2ccccc2C#N)c(OC2CCN(C)CC2)c1OC` [Example 89, (E)-N-(2-cyanophenyl)-3-[3-methoxy-2-[(1-methyl-4-piperidyl)oxy]-4-prop-2-ynoxy-phenyl]prop-2-enamide] were 19.8 µM and 4.66 µM.
The like results for `COc1cc(/C=C/C(=O)Nc2ccccc2C(=O)O)ccc1OCc1cnn(C)c1` [Example 53, (E)-2-(3-(3-methoxy-4-((1-methyl-1H-pyrazol-4-yl)methoxy)phenyl)acrylamido)benzoic acid] were, in that order, 226 µM and 15 µM.
Regarding `COc1ccc(/C=C/C(=O)Nc2cccc(Cl)c2)cc1N1CCOCC1` [Example 151, (E)-N-(3-chlorophenyl)-3-(4-methoxy-3-morpholinophenyl)acrylamide], the CC50 at 48 h in series [1] was greater than 300 µM. The midpoint of inhibition in series [2] (setting [3]), the IC50, lay at 31.6 µM.
The like results for `COc1cc(/C=C/C(=O)Nc2ccccc2F)ccc1OC1CCN(C)C1` (centres unmarked) [Example 130, (E)-N-(2-fluorophenyl)-3-(3-methoxy-4-((1-methylpyrrolidin-3-yl)oxy)phenyl)acrylamide] were, in that order, 51.8 µM and 15.6 µM.
In series [1], `COc1cc(C2CC2C(=O)Nc2cccc(Cl)c2)ccc1OCC1COC1` (centres unmarked) [Example 148, N-(3-chlorophenyl)-2-(3-methoxy-4-(oxetan-3-ylmethoxy)phenyl)cyclopropane-1-carboxamide] displayed a CC50 at 48 h of 77.6 µM. Besides, the IC50 in series [2] (setting [3]) amounted to 8.47 µM.
For the molecule `C#CCOc1ccc(/C=C/C(=O)Nc2ccccc2Cl)cc1OC` [Example 3, (E)-N-(2-chlorophenyl)-3-(3-methoxy-4-(prop-2-yn-1-yloxy)phenyl)acrylamide], the CC50 at 48 h in series [1] came to 71.1 µM. In series [2] (setting [3]), this molecule gave a half-maximal inhibitory concentration (IC50) of 3.94 µM.
Taken in the same sequence, the figures for `COc1ccc(/C=C/C(=O)Nc2ccccc2C(=O)O)cc1CC1CC1` [Example 106, (E)-2-(3-(3-(cyclopropylmethyl)-4-methoxyphenyl)acrylamido)benzoic acid] were 25.1 µM and 1.58 µM.
The like results for `COc1cc(/C=C/C(=O)Nc2cccc(Cl)c2)ccc1OCC1COC1` [Example 147, (E)-N-(3-chlorophenyl)-3-(3-methoxy-4-(oxetan-3-ylmethoxy)phenyl)acrylamide] were, in that order, greater than 300 µM and 39.1 µM.
The like results for `CCc1ccc(/C=C/C(=O)Nc2ccccc2C(=O)O)cc1OC` [Example 100, (E)-2-(3-(4-ethyl-3-methoxyphenyl)acrylamido)benzoic Acid] were, in that order, 37 µM and 9.29 µM.
Molecule `CCc1cc(/C=C/C(=O)Nc2ccccc2C(=O)O)ccc1OC` [Example 105, (E)-2-(3-(3-ethyl-4-methoxyphenyl)acrylamido)benzoic acid] showed a CC50 at 48 h in series [1] of 79.7 µM. Further, 8.44 µM corresponded to half-maximal inhibition in series [2] (setting [3]) (IC50).
Taken in the same sequence, the figures for `C#CCOc1ccc(/C=C/C(=O)Nc2ccccc2-c2nnco2)cc1OC` [Example 21, (E)-N-(2-(1,3,4-oxadiazol-2-yl)phenyl)-3-(3-methoxy-4-(prop-2-yn-1-yloxy)phenyl)acrylamide] were greater than 300 µM and 25 µM.
Taken in the same sequence, the figures for `COc1ccc(C2CC2C(=O)Nc2ccccc2Cl)cc1OCc1cnn(C)c1` (centres unmarked) [Example 157] were 45.3 µM and 12.6 µM.
The like results for `COc1cc(/C=C/C(=O)Nc2ccccc2C(=O)O)ccc1CN1CCN(C)CC1` [Example 68, (E)-2-(3-(3-methoxy-4-((4-methylpiperazin-1-yl)methyl)phenyl)acrylamido)benzoic acid] were, in that order, greater than 300 µM and 44.9 µM.
As to `COc1cc(C2CC2C(=O)Nc2ccc(F)cc2)ccc1OC1CCN(C)C1` (centres unmarked) [Example 136, N-(4-fluorophenyl)-2-(3-methoxy-4-((1-methylpyrrolidin-3-yl)oxy)phenyl)cyclopropane-1-carboxamide], the CC50 at 48 h in series [1] was determined as 16.3 µM. This molecule displayed an IC50 in series [2] (setting [3]) of 4.13 µM.
In series [1], `C#CCOc1ccc(/C=C/C(=O)Nc2ccccc2-c2ncon2)cc1OC` [Example 17, (E)-N-(2-(1,2,4-oxadiazol-3-yl)phenyl)-3-(3-methoxy-4-(prop-2-yn-1-yloxy)phenyl)acrylamide] displayed a cytotoxic concentration (CC50) at 48 h greater than 300 µM. In addition, the IC50 in series [2] (setting [3]) came out at 31.6 µM.
`C#CCOc1ccc(/C=C/C(=O)Nc2ccccc2C#N)c(OC2CN(C)C2)c1OC` [Example 79, (E)-N-(2-cyanophenyl)-3-[3-methoxy-2-(1-methylazetidin-3-yl)oxy-4-prop-2-ynoxy-phenyl]prop-2-enamide] gave a 50% cytotoxic concentration (CC50) at 48 h in series [1] of 23.4 µM. In series [2] (setting [3]), this molecule gave an IC50 of 9.52 µM.
Taken in the same sequence, the figures for `C#CCOc1ccc(C2CC2C(=O)n2nc(O)c3ccccc32)cc1OC` (centres unmarked) [Example 134, (3-hydroxy-1H-indazol-1-yl)(2-(3-methoxy-4-(prop-2-yn-1-yloxy)phenyl)cyclopropyl)methanone] were greater than 300 µM and 17.5 µM.
The like results for `COc1cc(/C=C/C(=O)Nc2ccccc2C(=O)O)ccc1OCCc1cccnc1` [Example 57, (E)-2-(3-(3-methoxy-4-(2-(pyridin-3-yl)ethoxy)phenyl)acrylamido)benzoic acid] were, in that order, greater than 76.6 µM and 9.37 µM.
Taken in the same sequence, the figures for `COc1ccc(C2CC2C(=O)Nc2ccc(Cl)cc2)cc1OCc1cnn(C)c1` (centres unmarked) [Example 149, N-(4-chlorophenyl)-2-(4-methoxy-3-((1-methyl-1H-pyrazol-4-yl)methoxy)phenyl)cyclopropane-1-carboxamide] were greater than 54.8 µM and 8.35 µM.
In series [1], `C#CCOc1ccc(/C=C/C(=O)Nc2ccc(F)cc2)cc1CC` [Example 125, (E)-3-(3-ethyl-4-(prop-2-yn-1-yloxy)phenyl)-N-(4-fluorophenyl)acrylamide] displayed a CC50 at 48 h greater than 300 µM. Also, in series [2] (setting [3]), the midpoint of inhibition, the IC50, lay at 17.6 µM.
In turn, `C#CCOc1ccc(/C=C/C(=O)n2nc(O)c3ccccc32)cc1OC` [Example 15, (E)-1-(3-hydroxy-1H-indazol-1-yl)-3-(3-methoxy-4-(prop-2-yn-1-yloxy)phenyl)prop-2-en-1-one] registered a CC50 at 48 h in series [1] of 304 µM. The molecule further gave a 50% inhibitory concentration (IC50) in series [2] (setting [3]) of 25.2 µM.
In series [1], `C#CCOc1ccc(/C=C/C(=O)Nc2ccccc2)cc1OC` [Example 8, (E)-3-(3-methoxy-4-(prop-2-yn-1-yloxy)phenyl)-N-phenylacrylamide] had a 50% cytotoxic concentration (CC50) at 48 h of 109 µM. Further, the midpoint of inhibition in series [2], the IC50, lay at 5.33 µM.
`C#CCOc1ccc(/C=C/C(=O)Nc2ccc(Cl)c(Cl)c2)cc1OC` [Example 7, (E)-N-(3,4-dichlorophenyl)-3-(3-methoxy-4-(prop-2-yn-1-yloxy)phenyl)acrylamide] came in with a cytotoxic concentration (CC50) at 48 h in series [1] of 62.5 µM. Further, 1.97 µM corresponded to half-maximal inhibition in series [2] (setting [3]) (IC50).
Taken in the same sequence, the figures for `C#CCOc1ccc(/C=C/C(=O)Nc2ccccc2C(=O)Nc2nn[nH]n2)cc1OC` [Example 31, (E)-2-(3-(3-methoxy-4-(prop-2-yn-1-yloxy)phenyl)acrylamido)-N-(2H-tetrazol-5-yl)benzamide] were greater than 300 µM and 13.9 µM.
With `C#CCOc1ccc(/C=C/C(=O)Nc2ccccc2C(=O)NC2COC2)cc1OC` [Example 38, (E)-2-(3-(3-methoxy-4-(prop-2-yn-1-yloxy)phenyl)acrylamido)-N-(oxetan-3-yl)benzamide], in series [1], the half-maximal cytotoxic concentration (CC50) at 48 h turned out to be 236 µM. Also, the midpoint of inhibition in series [2] (setting [3]), the IC50, lay at 38.2 µM.
The like results for `C#CCOc1ccc(/C=C/C(=O)Nc2ccccc2C(=O)NCc2cncn2C)cc1OC` [Example 40, (E)-2-(3-(3-methoxy-4-(prop-2-yn-1-yloxy)phenyl)acrylamido)-N-((1-methyl-1H-imidazol-5-yl)methyl)benzamide] were, in that order, greater than 300 µM and 6.76 µM.
